Measured values reported in PMC6888270 (International Journal of Molecular Sciences, 2019).
Square brackets hold non-standard residues; d marks the D form. Peptide text beside a SMILES is read from it. d(hArg(Et2)) = CCN=C(NCC)NCCCC[C@@H](N)C(=O)O; hArg(Et2) = CCN=C(NCC)NCCCC[C@H](N)C(=O)O; dPhe(4-Cl) = N[C@H](Cc1ccc(Cl)cc1)C(=O)O; d2Nal = N[C@H](Cc1ccc2ccccc2c1)C(=O)O; dCit = NC(=O)NCCC[C@@H](N)C(=O)O; d3Pal = N[C@H](Cc1cccnc1)C(=O)O

System: β-catenin activation
Assay: Immunofluorescence of active β-catenin in HEK293/GnRHR cells
Format: cell-based, human
Settings: 1 µM GnRH + 1 µM antagonist, 1 h
Procedure: In order to evaluate the activation of phospho-proteins and β-catenin by Western blotting and immunofluorescence, 1 × 10^5 HEK293 cells were transiently transfected in a 24-well plate. To this purpose, 500 ng of GnRHR-HA-encoding vector diluted in 2 µL/well Lipofectamine® 2000 Transfection Reagent (Invitrogen) were used, according to the manufacturer’s instructions. Transfected HEK293 cells (HEK293/GnRHR) were cultured for 48 h and maintained over-night in serum-free medium before experiments.
3 × 10^4 HEK293/GnRHR and mock-transfected HEK293 cells (negative control) were plated on gelatine-treated slides. […] As a positive control, cells were treated for 16 h with 100 nM of the selective glycogen synthase kinase 3 (GSK3) inhibitor, CHIR99021 (Sigma-Aldrich), which stabilizes free cytosolic β-catenin [68]. After stimulations, cells were washed in PBS with Ca^2+/Mg^2+ and fixed for 20 min in paraformaldehyde 4%/PBS. Cell monolayers were washed by PBS and permeabilized using 0.1% Triton X-100. Samples were incubated in 4% bovine serum albumin (BSA)/PBS, for 1 h at room temperature (RT), before incubation with a mouse primary antibody targeting β-catenin (#05-665, 1:300 dilution in 4% BSA/PBS; Merck KGaA) overnight at 4 °C. Following washing, cells were then incubated with Cy3-conjugated anti-mouse IgG secondary antibody (#C2181, 1:200 dilution in 4% BSA/PBS; Sigma-Aldrich) for 1 h at RT. Cell monolayers were then stained for 10 min with 4′,6-diamidino-2-phenylindole (DAPI) (Sigma-Aldrich) and washed in PBS before slide treatment by polyvinyl alcohol mounting medium with 1,4-diazabicyclo[2.2.2]octane (DABCO®) (Sigma-Aldrich). Fluorescent signals were detected using the Eclipse Ni-E microscope (Nikon Instruments BV, Amsterdam, The Netherlands).

**Q.** With CC(=O)N[C@H](Cc1ccc2ccccc2c1)C(=O)N[C@H](Cc1ccc(Cl)cc1)C(=O)N[C@H](Cc1cccnc1)C(=O)N[C@@H](CO)C(=O)N[C@@H](Cc1ccc(O)cc1)C(=O)N[C@H](CCCNC(N)=O)C(=O)N[C@@H](CC(C)C)C(=O)N[C@@H](CCCNC(=N)N)C(=O)N1CCC[C@H]1C(=O)N[C@H](C)C(N)=O [Cetrorelix] (Ac-[d2Nal][dPhe(4-Cl)][d3Pal]SY[dCit]LRP[dA]-NH2) as the molecule, how does the “effect on GnRH-induced active β-catenin staining” value read?
**A.** reduced

**Q.** Which “effect on GnRH-induced active β-catenin staining” value does the source give for CCN=C(NCC)NCCCC[C@H](NC(=O)[C@H](CC(C)C)NC(=O)[C@@H](CCCCNC(=NCC)NCC)NC(=O)[C@H](Cc1ccc(O)cc1)NC(=O)[C@H](CO)NC(=O)[C@@H](Cc1cccnc1)NC(=O)[C@@H](Cc1ccc(Cl)cc1)NC(=O)[C@@H](Cc1ccc2ccccc2c1)NC(C)=O)C(=O)N1CCC[C@H]1C(=O)N[C@H](C)C(N)=O [Ganirelix] (Ac-[d2Nal][dPhe(4-Cl)][d3Pal]SY[d(hArg(Et2))]L[hArg(Et2)]P[dA]-NH2; N-terminus and C-terminus assumed) here?
**A.** reduced
